Reference: the supplement of paper PMC11061612

Columns and labels:
[1] = system: HOP-62 (Lung Adenocarcinoma); assay: Bliss excess, mean over the matrix (fraction); higher = more synergy
Procedure, shortened: (§1)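 Bliss excess equals the observed combination effect minus the expected value EA + EB − EA·EB, where EA and EB are the effects of each agent alone. Combination Emax is the second-highest inhibition within the matrix. Inhibition was scaled from CellTiter-Glo 2.0 luminescence, with 0 set by vehicle wells and 1 by blank wells, after 72 hours of two-drug dosing of cells plated in 1536-well plates.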

[2] = system: NCI-H1915 (Non-Small Cell Lung Carcinoma); assay: as above
Procedure, shortened: as §1

[3] = system: OE19 (Esophageal Adenocarcinoma); assay: as above
Procedure, shortened: as §1

[4] = system: OSC-20 (Oral Cavity Carcinoma); assay: as above
Procedure, shortened: as §1

[5] = system: PWR-1E (Non-Cancerous); assay: as above
Procedure, shortened: as §1

[6] = system: SCC-15 (Oral Cavity Carcinoma); assay: as above
Procedure, shortened: as §1

[7] = system: SU8686 (Pancreatic Carcinoma); assay: as above
Procedure, shortened: as §1

[8] = system: TE-1 (Esophageal Squamous Cell Carcinoma); assay: as above
Procedure, shortened: as §1

[9] = system: VA-ES-BJ (Other Solid Carcinomas); assay: as above
Procedure, shortened: as §1

[10] = system: ACHN (Kidney Carcinoma); assay: combination Emax (second highest fraction inhibited in the dose matrix, 72 h); higher = more inhibition; extreme values may be limits of the assay
Procedure, shortened: as §1

[11] = system: BT-549 (Breast Carcinoma); assay: as above
Procedure, shortened: as §1

[12] = system: Caov-4 (Ovarian Carcinoma); assay: as above
Procedure, shortened: as §1

[13] = system: EFM-19 (Breast Carcinoma); assay: as above
Procedure, shortened: as §1

[14] = system: MIA-PaCa-2 (Pancreatic Carcinoma); assay: as above
Procedure, shortened: as §1

[15] = system: MLMA (Other Blood Carcinomas); assay: as above
Procedure, shortened: as §1

[16] = system: NB69 (Neuroblastoma); assay: as above
Procedure, shortened: as §1

[17] = system: SW13 (Other Solid Carcinomas); assay: as above
Procedure, shortened: as §1

[18] = system: TK10 (Kidney Carcinoma); assay: as above
Procedure, shortened: as §1

[19] = system: UACC-62 (Melanoma); assay: as above
Procedure, shortened: as §1

| SMILES | Bliss excess [1] | Bliss excess [2] | Bliss excess [3] | Bliss excess [4] | Bliss excess [5] | Bliss excess [6] | Bliss excess [7] | Bliss excess [8] | Bliss excess [9] | combination Emax [10] | combination Emax [11] | combination Emax [12] | combination Emax [13] | combination Emax [14] | combination Emax [15] | combination Emax [16] | combination Emax [17] | combination Emax [18] | combination Emax [19] |
| --- | --- | --- | --- | --- | --- | --- | --- | --- | --- | --- | --- | --- | --- | --- | --- | --- | --- | --- | --- |
| COc1cc2ncnc(Nc3ccc(F)c(Cl)c3)c2cc1OCCCN1CCOCC1 [Gefitinib] + CC(C)n1c(=O)n(C)c2cnc3cc(F)c(-c4ccc(OCCCN5CCCCC5)nc4)cc3c21 [AZD1390] (first compound max 10 µM, 7x7, partner max 0.3 µM) | -0.0751 | -0.0433 | -0.0181 | -0.0691 | -0.0234 | -0.0571 | -0.0378 | -0.0471 | -0.0513 | 0.551 | 0.0893 | 0.171 | 0.158 | 0.208 | 0.33 | 0.369 | 0.724 | 0.445 | 0.248 |
| N#Cc1cnc(Nc2cc(NC[C@H]3CNCCO3)c(C(F)(F)F)cn2)cn1 [SRA737] + C=CCn1c(=O)c2cnc(Nc3ccc(N4CCN(C)CC4)cc3)nc2n1-c1cccc(C(C)(C)O)n1 [AZD1775] (first compound max 10 µM, partner max 1 µM) |  |  |  |  |  |  |  |  |  | 0.865 | 0.804 | 0.854 | 0.413 | 0.911 | 0.826 | 0.969 | 0.218 | 0.653 | 0.304 |
| N#Cc1cnc(Nc2cc(NC[C@H]3CNCCO3)c(C(F)(F)F)cn2)cn1 [SRA737] + CCc1c2c(nc3ccc(O)cc13)-c1cc3c(c(=O)n1C2)COC(=O)[C@]3(O)CC [SN-38] (first compound max 10 µM, 7x7, partner max 0.3 µM) |  |  |  |  |  |  |  |  |  | 0.893 | 0.75 | 0.9 | 0.689 | 0.942 | 0.77 | 0.991 | 0.948 | 0.682 | 0.664 |
| N#Cc1cnc(Nc2cc(NC[C@H]3CNCCO3)c(C(F)(F)F)cn2)cn1 [SRA737] + Nc1ccn([C@@H]2O[C@H](CO)[C@@H](O)C2(F)F)c(=O)n1 [Gemcitabine] (first compound max 10 µM, 7x7, partner max 0.3 µM) |  |  |  |  |  |  |  |  |  | 0.821 | 0.715 | 0.856 | 0.684 | 0.951 | 0.818 | 0.983 | 0.944 | 0.549 | 0.788 |
| N#Cc1cnc(Nc2cc(NC[C@H]3CNCCO3)c(C(F)(F)F)cn2)cn1 [SRA737] + O=c1[nH]cc(F)c(=O)[nH]1 [5-Fluorouracil] (first compound max 10 µM, 7x7, partner max 20 µM) |  |  |  |  |  |  |  |  |  | 0.781 | 0.711 | 0.749 | 0.355 | 0.252 | 0.77 | 0.805 | 0.0967 | 0.551 | 0.098 |
| C[C@@H](c1ccc2nccn2c1)n1nnc2ncc(-c3cnn(C)c3)nc21 [Savolitinib] + CC1(C)CCC(CN2CCN(c3ccc(C(=O)NS(=O)(=O)c4ccc(NCC5CCOCC5)c([N+](=O)[O-])c4)c(Oc4cnc5[nH]ccc5c4)c3)CC2)=C(c2ccc(Cl)cc2)C1 [Venetoclax] (first compound max 1 µM, 7x7, partner max 1 µM) | -0.0939 | -0.0456 | -0.0377 | -0.0521 | -0.034 | -0.0613 | -0.0617 | -0.0546 | -0.0433 | 0.127 | 0.113 | 0.12 | 0.182 | 0.164 | 0.157 | 0.372 | 0.139 | 0.106 | 0.24 |
| C[C@@H](c1ccc2nccn2c1)n1nnc2ncc(-c3cnn(C)c3)nc21 [Savolitinib] + Cc1c2c(nn1C)CSCc1cc(n(C)n1)CSc1cc(c3ccccc3c1)OCCCc1c(C(=O)O)n(C)c3c-2c(Cl)ccc13 [AZD5991] (first compound max 1 µM, 7x7, partner max 1 µM) | -0.0754 | -0.0587 | -0.093 | -0.0239 | -0.0664 | -0.0222 | -0.0127 | -0.0748 | -0.0299 | 0.174 | 0.225 | 0.421 | 0.223 | 0.204 | 0.33 | 0.74 | 0.735 | 0.116 | 0.545 |
